Source: patent US20080022467A1, “Disazo dyes and their preparation and use” (ILFORD Imaging Switzerland GmbH, priority 2006, published 2008)

Columns and labels:
[1] = Light stability of printed patches (Weather-Ometer, xenon lamp); format: physicochemical; design: key to Light Stability (Class) on Recording Sheet A / Light Stability (Class) on Recording Sheet B / Light Stability (Class) on Recording Sheet C / Light Stability (Class) on Recording Sheet D / Light Stability (Class) on Recording Sheet E / Light Stability (Class) on Recording Sheet F / Light Stability (Class) on Recording Sheet G: A: excellent; B: good; C: satisfactory; D: unsatisfactory; details: 20 megalux hours; for Light Stability (Class) on Recording Sheet A: A: HP Printing Paper HPP 1122 (paper), 20° C., 50% relative humidity; for Light Stability (Class) on Recording Sheet B: B: HP Premium Plus (polymer based); for Light Stability (Class) on Recording Sheet C: C: ILFORD Galerie Smooth Glossy (nanoporous); for Light Stability (Class) on Recording Sheet D: D: ILFORD Printasia Premium Photo Glossy Paper (nanoporous); for Light Stability (Class) on Recording Sheet E: E: ILFORD Galerie Classic Gloss Paper (polymer based); for Light Stability (Class) on Recording Sheet F: F: EPSON Premium Glossy Photo Paper (nanoporous); for Light Stability (Class) on Recording Sheet G: G: CANON Photo Paper Pro PR-101 (nanoporous)
Protocol: (§1) The present invention, as far as it relates to recording liquids, is illustrated by the following examples using the disazo dyes of Table 1 according to the invention and dyes representing the state of the art. For each dye, 100 g of recording liquid were prepared by heating the necessary amount of dye (2.0 g-5.0 g), 6.0 g of ethylene glycol, 3.0 g of propylene-1,2-glycol, 3.0 g of 1-methyl-2-pyrrolidone, 0.3 g of an aqueous solution (50%) of Olin® 10G (available from Arch Chemicals Inc., Norwalk, USA), 0.3 g of Surfinol® 465 (available from Air Products and Chemicals Inc., Allentown, USA) and 0.1 g of Mergal® K 10N (available from Riedel-de-Haën, Seelze, Germany) together with water at a temperature of 50° C. under stirring for approximately 1 hour. The resulting solution was cooled down to a temperature of 20° C., its value of pH was adjusted to 7.5 and the solution was passed through a Millipore® filter of 0.3 μm pore diameter. The dye quantity was adjusted in such a way that the optical density of the printed image was similar for all dyes.
(§2) Homogeneously colored square patches with an approximate density of 1.40 were then printed, using these recording liquids, with an ink jet printer Canon BJC 8500 onto the following recording sheets: • A: HP Printing Paper HPP 1122 (paper) • B: HP Premium Plus (polymer based recording sheet) • C: ILFORD Galerie Smooth Glossy (nanoporous recording sheet) • D: ILFORD Printasia Premium Photo Glossy Paper (nanoporous recording sheet) • E: ILFORD Galerie Classic Gloss Paper (polymer based recording sheet) • F: EPSON Premium Glossy Photo Paper (nanoporous recording sheet) • G: CANON Photo Paper Pro PR-101 (nanoporous recording sheet)
The printed samples were irradiated using a Weather-Ometer® Ci35A (available from Atlas Material Testing Technology, Chicago, USA) with a 6500 W xenon lamp at a temperature of 20° C. and relative humidity of 50% until an illumination of 20 megalux hours was reached. The density loss was measured with a densitometer Spectrolino®. The percent density loss of initial density gives an indication of the light stability of the dyes on the printed recording sheet.

[2] = Stability against degradation by ozone of printed patches; format: physicochemical; design: key: A: excellent; B: good; C: satisfactory; D: unsatisfactory; details: ozone 1 ppm, 30° C., 50% relative humidity; for Resistance against Degradation by Ozone (Class) on Recording Sheet C: C: ILFORD Galerie Smooth Glossy (nanoporous); for Resistance against Degradation by Ozone (Class) on Recording Sheet D: D: ILFORD Printasia Premium Photo Glossy Paper (nanoporous); for Resistance against Degradation by Ozone (Class) on Recording Sheet F: F: EPSON Premium Glossy Photo Paper (nanoporous); for Resistance against Degradation by Ozone (Class) on Recording Sheet G: G: CANON Photo Paper Pro PR-101 (nanoporous)
Protocol: as §1, §2
The optical density of the colored square patches was measured with a Spectrolino® densitometer. Afterwards, the printed samples were stored for a predetermined time (for example 48 hours) in an ozone chamber, model 903 (available from Satra/Hampden, Great Britain) at a temperature of 30° C., a relative humidity of the air of 50% and an ozone concentration of 1 ppm at a velocity of the circulating, ozone containing air of 13 mm/s. After storage, the samples were re-measured. The density differences of these two measurements, expressed as per cent of the initial density, are an indication of the amount of dye loss due to the exposure to ozone.

SMILES | Light Stability (Class) on Recording Sheet A [1] | Light Stability (Class) on Recording Sheet B [1] | Light Stability (Class) on Recording Sheet C [1] | Light Stability (Class) on Recording Sheet D [1] | Light Stability (Class) on Recording Sheet E [1] | Light Stability (Class) on Recording Sheet F [1] | Light Stability (Class) on Recording Sheet G [1] | Resistance against Degradation by Ozone (Class) on Recording Sheet C [2] | Resistance against Degradation by Ozone (Class) on Recording Sheet D [2] | Resistance against Degradation by Ozone (Class) on Recording Sheet F [2] | Resistance against Degradation by Ozone (Class) on Recording Sheet G [2]
CN(CCS(=O)(=O)[O-])c1nc(Nc2ccc(N=Nc3cc(S(=O)(=O)[O-])c4cccc(S(=O)(=O)[O-])c4c3)cc2)nc(Nc2ccc(N=Nc3cc(S(=O)(=O)[O-])c4cccc(S(=O)(=O)[O-])c4c3)cc2)n1.[Na+].[Na+].[Na+].[Na+].[Na+] [Dye No. 14] | B | A | A | B | B | B | B | A | A | A | A
O=S(=O)([O-])CCCSc1nc(Nc2ccc(N=Nc3ccc4cc(S(=O)(=O)[O-])cc(S(=O)(=O)[O-])c4c3)cc2)nc(Nc2ccc(N=Nc3ccc4cc(S(=O)(=O)[O-])cc(S(=O)(=O)[O-])c4c3)cc2)n1.[Na+].[Na+].[Na+].[Na+].[Na+] [Dye No. 15] | B | A | B | B | B | B | B | B | A | A | A
O=S(=O)([O-])CCNc1nc(Nc2ccc(N=Nc3ccc4cc(S(=O)(=O)[O-])cc(S(=O)(=O)[O-])c4c3)cc2)nc(Nc2ccc(N=Nc3ccc4cc(S(=O)(=O)[O-])cc(S(=O)(=O)[O-])c4c3)cc2)n1.[Na+].[Na+].[Na+].[Na+].[Na+] [Dye No. 16] | B | A | B | B | B | B | B | A | A | A | A

Second part, the molecule after the results:

Light Stability (Class) on Recording Sheet A [1] | Light Stability (Class) on Recording Sheet B [1] | Light Stability (Class) on Recording Sheet C [1] | Light Stability (Class) on Recording Sheet D [1] | Light Stability (Class) on Recording Sheet E [1] | Light Stability (Class) on Recording Sheet F [1] | Light Stability (Class) on Recording Sheet G [1] | Resistance against Degradation by Ozone (Class) on Recording Sheet C [2] | Resistance against Degradation by Ozone (Class) on Recording Sheet D [2] | Resistance against Degradation by Ozone (Class) on Recording Sheet F [2] | Resistance against Degradation by Ozone (Class) on Recording Sheet G [2] | SMILES
B | A | A | B | B | B | B | A | A | A | A | O=S(=O)([O-])CCCSc1nc(Nc2ccc(N=Nc3cc(S(=O)(=O)[O-])c4cccc(S(=O)(=O)[O-])c4c3)cc2)nc(Nc2ccc(N=Nc3cc(S(=O)(=O)[O-])c4cccc(S(=O)(=O)[O-])c4c3)cc2)n1.[Na+].[Na+].[Na+].[Na+].[Na+] [Dye No. 10]
B | A | A | B | B | A | A | A | A | A | A | O=S(=O)([O-])CCNc1nc(Nc2ccc(N=Nc3cc(S(=O)(=O)[O-])c4cccc(S(=O)(=O)[O-])c4c3)cc2)nc(Nc2ccc(N=Nc3cc(S(=O)(=O)[O-])c4cccc(S(=O)(=O)[O-])c4c3)cc2)n1.[Na+].[Na+].[Na+].[Na+].[Na+] [Dye No. 11]
